Experimental data: US6468964B1, “Control of acidic gut syndrome” (University of New England, of Armidale, priority 1997, dated 2002)
“And” between values parts separate entries of the source, which are not always exact repeats. Identical values can stand only once. Marks after values point to notes of the source that are not given here.

Assays:
[1] = tested on: immune system (neutrophils, lymphocytes, acute phase protein, IL-1); assay: Pigs fed HGF diet: changes in immune system (white blood cells, acute phase protein, IL-1); assay type: in vivo, pig; details: HGF diet with 25 mg virginiamycin/kg DM
[2] = Pigs fed HGF diet: feed intake, weight change, weight of washed gut; assay type: in vivo, pig
Method: 3. Body weights were measured 2 days before the start of feeding experimental diets, on day 3 and day 7.
5. The amount of feed not consumed was measured each afternoon and intake calculated as a % of amount offered.
(§1) 7. On day 7, half of the pigs in each treatment group were euthanased with pentobarbitone. Post mortem measurements were made of size of the digestive tract, the pH of diqesta in different part of the tract and the digestive tract and other organs were examined for any sign of abnormal tissue appearance. On day 8 the remaining pigs were euthanased and the same post mortem measurements made on these animals.

[3] = tested on: acid accumulation in the hind gut; assay: Acidic gut syndrome in pigs fed HGF diet: digesta/faecal pH and faecal consistency; assay type: in vivo, pig; details: HGF diet with 25 mg virginiamycin/kg DM, post mortem
TNF-α = assay: Sheep overfed high-barley pellets: faecal TNF-α by ELISA; assay type: in vivo; details: VM 30 mg/kg pellets; for Faecal TNF-α concentration, individual sheep: sheep 2, 4, 6, listed as VM
Text: (§2) Six full mouth cannulated cross-bred sheep, weighing approximately 45 kg were used in the trial. These sheep were housed in individual pens on a wood grating floor in an enclosed animal house. All sheep were fed once per day, and water was available at all times ad libitum. All sheep were fed a basal diet consisting of oaten chaff plus 1% urea and 1% mineral pre-mix (Pfizer Animal Health Pty. Ltd.). At time 0 in the experiment, all sheep were fed a pellet containing high levels of barley with or without virginiamycin (VM). The sheep were autopsied 48 hours after grain feeding.
(§3) All sheep were offered 1000 g of a pellet containing 76% barley, 17% lucerne, 3.5% cottonseed meal, 1% urea and 1.5% limestone at the start of the experiment. The sheep were then offered another 1000 g of the pellet 12 hours later. All sheep consumed all of the pelleted feed offered. Half of the sheep received the pellets with no dietary additives, and the other half received the pellets with virginiamycin (VM) added at 30 mg/kg. Eskalin (Pfizer Animal Health Pty. Ltd., 20 g virginiamycin/kg) was included at 1.5 g/kg pellets to provide 30 mg VM/kg in the mixed diet. The animals were monitored closely after receiving grain and autopsied 48 hours after initial grain feeding.
(§4) All sheep were fitted with faecal collection bags, which consisted of a PVC ring attached to the posterior of the sheep to which a plastic bag was attached in order to collect total faecal output. Rumen fluid was taken via the rumen fistula. Rumen and faecal samples were taken at 4 hourly intervals for the first 12 hours after grain feeding. Samples were then taken at 24, 36 and 48 hours after initial feeding.
(§5) A representative 20 g sample of faeces was taken into a small vial, an equal volume of water added and mixed well. The faecal pH was then measured immediately on this sample as for rumen fluid. A further sample was placed in a sterile container and an equal weight of deionised water added to it. This was mixed well using a sterile spatula, and then centrifuged at 15000 rpm for 20 mins. The supernatant was then transferred using a sterile pipette to 3 individual microfuge tubes and frozen for later analysis for TNF-α. TNF-α was measured in the faeces using an ELISA method.

Caecal Lactobacilli = assay: Pigs fed HGF diet: caecal Lactobacilli count; assay type: in vivo; details: HGF diet with 25 mg virginiamycin/kg DM
Text: (§6) Studies of rapid carbohydrate fermentation and acid build up in the hind gut of sheep and horses have shown that the concentration of volatile fatty acids (VFA) starts to increase and pH starts to drop before there is a proliferation of gram positive bacteria (particularly Streptococcus bovis and Lactobacilli) capable of producing lactic-acid. Lactic acid is a stronger acid than the VFA and is not absorbed from the caecum as quickly as VFA, and this combination of factors leads to low pH which is the first step in development of acidic gut syndrome. Virginiamycin was included in the diet of one of the two dietary treatments containing raftilose and high-maize starch to investigate its effectiveness in controlling lactic acid accumulation and hind gut pH as a potential method for preventing or controlling acidic gut syndrome.
as §1

[4] = tested on: acid accumulation in the hind gut; assay: Acidic gut syndrome in pigs fed HGF diet: digesta/faecal pH and faecal consistency; assay type: in vivo, pig
Text: Pigs were weaned at 4 weeks of age and housed individually in pens with concrete floors with weld mesh dividing walls in temperature controlled facilities. The pens were cleaned twice per day and drinking water was provided by an automatic watering system. All animals were handled daily to acclimatise them to experimental procedures associated with sampling.
Piglets were fed ad libitum on the basal diet for two weeks until commencement of dietary treatments. The diets were formulated to ensure balanced provisions of nutrients for growth and contained 67.5% carbohydrate (rice, cornflour and raftilose) and 32.5% protein mix. The protein mix contained 55% meat meal, 32% fishmeal, 6% casein and 6% vitamins, oil and synthetic amino acids. The proportion of total carbohydrates contributed by rice, corn flour and raftilose on each day of the study is shown in Table 1 together with the total amount offered per pig.
1. Daily collection of faeces from the pens of each pig to assess faecal consistency and for measurement of pH. Faecal consistency was assessed on a scale 1 to 5 with 1 being liquid diarrhoea and 5 being dry, separate, well formed faeces.
as §1

[5] = tested on: fermentative acidosis in the rumen and hind gut; assay: Sheep overfed high-barley pellets: rumen and faecal pH, lactate, rumen VFA; assay type: in vivo
Text: as §2, §3, §4
Rumen fluid pH was analysed immediately using a portable pH meter (‘Piccolo 2’ ATC pH meter by Hanna Instruments). A sample was also added to a 20 mL McCartney bottle containing approximately 7 μL of concentrated H2SO4, and frozen for later analysis of lactic and volatile fatty acids.
as §5

Caecal Strep. Bovis = assay: Pigs fed HGF diet: caecal Strep. bovis count; assay type: in vivo, Streptococcus bovis; details: HGF diet with 25 mg virginiamycin/kg DM
Text: as §6, §1

[6] = pigs, post mortem, HGF diet with 25 mg virginiamycin/kg DM
[7] = pigs on HGF diet, 25 mg virginiamycin/kg DM
[8] = weaner pigs, HGF diet with 25 mg virginiamycin/kg dietary DM, post mortem
[9] = proportion mmol/100 mmol, sheep, VM 30 mg/kg
[10] = sheep fed high grain pellets, VM 30 mg/kg
[11] = sheep overfed grain, VM 30 mg/kg pellets
[12] = sheep overfed grain, VM 30 mg/kg, 36 and 48 hour samples
[13] = sheep, VM 30 mg/kg versus no additive

Substance: virginiamycin
- Acute phase protein CD3 [1]: 5.9
- IL-1 (av. days 1, 2, 5 & 8) [1]: 1.6
- IL-1 (day 5) ([1]; day 5): 2.0
- Lymphocytes (L) ([1]; jugular blood): 11.0
- N:L ratio ([1]; neutrophil to lymphocyte ratio): 0.57a
- Feed intake versus HGF diet alone ([2]; pigs on HGF diet treated with virginiamycin): higher intake
- Weight change (days 3 to 7) ([2]; pigs, HGF diet with 25 mg virginiamycin/kg DM): 1.13
- Intake (% offered) (day 4) ([2]; pigs, HGF diet with 25 mg virginiamycin/kg DM, day 4): 81^ab % offered
- Av intake (days 1 to 8) ([2]; pigs, HGF diet with 25 mg virginiamycin/kg DM, intake calculated as % of amount offered): 83^ab
- Weight of washed gut (g): Caecum [2, 6]: 31.4^a g
- Weight of washed gut (g): Rectum [2, 6]: 35.1 g
- Weight of washed gut (g): Stomach [2, 6]: 115 g
- Stomach pH (days 8/9) [3]: 3.6
- Faecal TNF-α concentration, group average (TNF-α; experimental hour 0): 12333
- Faecal TNF-α concentration, individual sheep (TNF-α; experimental hour 0): 9000 and 16000 and 12000
- Faecal TNF-α concentration, group average (TNF-α; experimental hour 24): 17667
- Faecal TNF-α concentration, individual sheep (TNF-α; experimental hour 24): 12000 and 24000 and 17000
- Faecal TNF-α concentration, group average (TNF-α; experimental hour 36): 62444
- Faecal TNF-α concentration, individual sheep (TNF-α; experimental hour 36): 98333 and 64000 and 25000
- Faecal TNF-α concentration, group average (TNF-α; experimental hour 48): 124222
- Faecal TNF-α concentration, individual sheep (TNF-α; experimental hour 48): 230667 and 66000 and 76000
- Caecal Lactobacilli (Caecal Lactobacilli): 1.4 × 10^10
- pH in different parts of the digestive tract (FIG. 6, words) ([4]; pigs fed HGF diet with or without virginiamycin): consistent effect in reducing acid accumulation (increasing pH) in all parts of the digestive tract
- Acid accumulation in the hind gut and in faeces [4, 7]: effective in reducing the extent of acid accumulation
- Effect on faecal consistency [4, 7]: significantly improved faecal consistency
- Ileal pH ([4]; pigs, HGF diet with 25 mg virginiamycin/kg DM, post mortem): 6.3
- Faecal consistency (av d1-5) ([4]; scale 1 to 5, 1 liquid diarrhoea, 5 dry well formed faeces, pigs, HGF diet with 25 mg virginiamycin/kg DM): 3.53^c
- Average faecal pH ([4]; weaner pigs, HGF diet with 25 mg virginiamycin/kg DM): 6.0^b
- Faecal pH (day 2) ([4]; weaner pigs, HGF diet with 25 mg virginiamycin/kg DM, day 2): 6.3^b
- Faecal pH (day 5) ([4]; weaner pigs, HGF diet with 25 mg virginiamycin/kg DM, day 5): 6.0^b
- Caecal pH [4, 8]: 5.7^ab
- Rectal pH [4, 8]: 6.3^b
- Rumen Ac (%) [5, 9]: 50.941%
- Rumen But (%) [5, 9]: 8.75%
- Rumen Pr (%) [5, 9]: 34.36%
- Ratio of Propionate to Acetate+(2×Butyrate) ([5]; rumen, sheep fed VM versus no additive): significantly higher
- Rumen D-Lactic acid [5, 10]: 25.12 mmol/L
- Rumen L-Lactic acid [5, 10]: 7.33 mmol/L
- Rumen total VFA [5, 10]: 81.80 mmol/L
- Average faecal pH [5, 11]: 7.28
- Average rumen pH [5, 11]: 5.84
- Faecal D-lactate [5, 12]: 7.43
- Faecal L-lactate [5, 12]: 28.2
- Difference in rumen or faecal pH between treatment groups [5, 13]: no differences
- Treatment effect on rumen lactic acid concentration [5, 13]: No treatment effects
- pH in different parts of the digestive tract (FIG. 8, words) ([5]; sheep, high-barley pellets with or without virginiamycin, autopsy at 48 hours): consistent effect in reducing acid accumulation (increasing pH) in all parts of the digestive tract
- Caecal Strep. Bovis (Caecal Strep. Bovis): 3.2 × 10^9
